Patent US9169252B2 (BRISTOL-MYERS SQUIBB COMPANY, priority 2014, dated 2015)
Where two headings read alike, the source gives them in different places.

Tested on: TLR2 induced IL-6 in peripheral blood mononuclear cells (PBMCs)
Experiment: PBMC TLR2 Induced IL-6 Assay
Format: cell-based, human
Conditions: IL-6 by ELISA; for EC50: read-out: Cell EC50; for IC50: read-out: Cell IC50
Procedure: PBMC TLR2 Induced IL-6 Assay
Peripheral blood mononuclear cells (PBMCs) were isolated from human blood containing the anti-coagulant EDTA (2.5 mM) by centrifugation over a FICOLL® gradient. PBMCs (250000 cells/well) were cultured in assay media (RPMI with 10% heat inactivated FCS) with compounds for 30 minutes at 37° C. in a 5% CO2 incubator. Following pretreatment with compounds, cells were stimulated for 5 hours with 10 µg/ml lipoteichoic acid (Invivogen, San Diego, Calif.), a TLR2 agonist. At the end of the culture, plates were centrifuged at 1800 rpm for 10 minutes to pellet the cells.

[1] = human PBMCs, lipoteichoic acid stimulated
[2] = Homo sapiens, PBMC, PBMC TLR2 Induced IL-6 Assay, lipoteichoic acid stimulation
[3] = PBMC TLR2 Induced IL-6 Assay, lipoteichoic acid stimulation
[4] = Homo sapiens, PBMC, human PBMCs, lipoteichoic acid stimulated

Structure (SMILES)	IC50 [1] [µM]	EC50 [3] [µM]	further results
CC(C)(O)[C@H](F)CNC(=O)c1cnc(-n2ncc3cc(F)cnc32)cc1NC1CCC(O)C1 (mixture of isomers) [Example 611]	1.85		EC50 [1]: 0.536 µM
CC(C)(O)[C@H](F)CNC(=O)c1cnc(-n2ccc3cc(C#N)cnc32)cc1NC1CCCOC1 (single isomer, unassigned) [Example 7]			EC50 [2]: 0.477 µM; IC50 [2]: 0.477 µM
CC(C)(O)[C@H](F)CNC(=O)c1cnc(-n2ccc3cc(C#N)cnc32)cc1NC1CCCOC1 (single isomer, unassigned) [Example 8]		0.695	IC50 [3]: 0.695 µM
CC(C)(O)[C@H](F)CNC(=O)c1cnc(-n2ccc3cc(C#N)cnc32)cc1NC1CCC(O)C1 (single isomer, unassigned) [Example 24]		0.03	
CC(C)(O)[C@H](F)CNC(=O)c1cnc(-n2ccc3cc(C#N)cnc32)cc1NC1CCC(O)C1 (single isomer, unassigned) [Example 25]		0.022	
CC(C)(O)[C@H](F)CNC(=O)c1cnc(-n2ccc3cc(C#N)cnc32)cc1NC1CCC(O)C1 (single isomer, unassigned) [Example 26]		0.168	
CC(C)(O)[C@H](F)CNC(=O)c1cnc(-n2ccc3cc(C#N)cnc32)cc1NC1CCC(O)C1 (single isomer, unassigned) [Example 27]		0.044	
CC(C)Nc1cc(-n2ccc3cc(C#N)cnc32)ncc1C(=O)NC[C@@H](F)C(C)O (single isomer, unassigned) [Example 48]		0.024	
CC(C)Nc1cc(-n2ccc3cc(C#N)cnc32)ncc1C(=O)NC[C@@H](F)C(C)O (single isomer, unassigned) [Example 49]		0.071	
CC(C)(O)[C@H](F)CNC(=O)c1cnc(-n2ccc3cc(C#N)cnc32)cc1N[C@@H]1COC[C@H]1F (single isomer, unassigned) [Example 458]			IC50 [4]: 0.26 µM; EC50 [1]: 0.261 µM
CC(C)(O)[C@H](F)CNC(=O)c1cnc(-n2ccc3cc(C#N)cnc32)cc1N[C@@H]1COC[C@H]1F (single isomer, unassigned) [Example 459]	0.343		EC50 [1]: 0.095 µM
CC(O)CCNc1cc(-n2ncc3cc(C#N)cnc32)ncc1C(=O)NC[C@@H](F)C(C)(C)O (single isomer, unassigned) [Example 572]			IC50 [4]: 0.303 µM
CC(O)CCNc1cc(-n2ncc3cc(C#N)cnc32)ncc1C(=O)NC[C@@H](F)C(C)(C)O (single isomer, unassigned) [Example 573]	0.27		EC50 [4]: 0.729 µM
CC(C)(O)[C@H](F)CNC(=O)c1cnc(-n2ncc3cc(F)cnc32)cc1NC1CCC(O)C1 (single isomer, unassigned) [Example 609]	1.44		EC50 [1]: 0.485 µM
CC(C)(O)[C@H](F)CNC(=O)c1cnc(-n2ncc3cc(F)cnc32)cc1NC1CCC(O)C1 (single isomer, unassigned) [Example 610]	0.217		EC50 [1]: 0.166 µM
CC(C)(O)[C@H](F)CNC(=O)c1cnc(-n2ncc3cc(Cl)cnc32)cc1N[C@@H]1C[C@H]1CO (single isomer, unassigned) [Example 645]	0.154		
CC(C)(O)[C@H](F)CNC(=O)c1cnc(-n2ncc3cc(Cl)cnc32)cc1N[C@@H]1C[C@H]1CO (single isomer, unassigned) [Example 646]	0.393		
COc1cccc(Nc2cc(-n3ccc4cc(C#N)cnc43)ncc2C(=O)NC[C@@H](F)C(C)(C)O)c1 [Example 51, (R)-6-(5-cyano-1H-pyrrolo[2,3-b]pyridin-1-yl)-N-(2-fluoro-3-hydroxy-3-methylbutyl)-4-((3-methoxyphenyl)amino)nicotinamide]			EC50 [2]: 0.065 µM
CC(C)Nc1cc(-n2ccc3cc(Cl)cnc32)ncc1C(=O)NC[C@@H](F)C(C)(C)O [Example 76, (R)-6-(5-chloro-1H-pyrrolo[2,3-b]pyridin-1-yl)-N-(2-fluoro-3-hydroxy-3-methylbutyl)-4-(isopropylamino) nicotinamide]			IC50 [2]: 0.395 µM
